Results published in the supplement of paper PMC4862054.

How the values were obtained:
Assay in all cases: normalised viability (% of control), CellTiter-Blue; higher = more viable cells (about 100 = DMSO control)
Conditions in all cases: incubation time: 72 h
DU-4475 [1] = tested on: DU-4475
Description: (§1)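 DSRT, CellTiter-Blue viability, 72 h incubation. Signal is normalised to DMSO and benzethonium chloride controls. Value is the normalised response at dose 7.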

CAL-148 [2] = tested on: CAL-148
Description: as §1

MDA-MB-453 [3] = tested on: MDA-MB-453
Description: as §1

CAL-51 [4] = tested on: CAL-51
Description: as §1

HDQ-P1 [5] = tested on: HDQ-P1
Description: as §1

CAL-85-1 [6] = tested on: CAL-85-1
Description: as §1

DU-4475 [7] = tested on: DU-4475; remark: listed apart in the source
Description: (§2)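 DSRT, CellTiter-Blue viability, 72 h incubation. Signal is normalised to DMSO and benzethonium chloride controls. Value is the normalised response at dose 8.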

CAL-148 [8] = tested on: CAL-148; remark: listed apart in the source
Description: as §2

MDA-MB-453 [9] = tested on: MDA-MB-453; remark: listed apart in the source
Description: as §2

CAL-51 [10] = tested on: CAL-51; remark: listed apart in the source
Description: as §2

HDQ-P1 [11] = tested on: HDQ-P1; remark: listed apart in the source
Description: as §2

CAL-85-1 [12] = tested on: CAL-85-1; remark: listed apart in the source
Description: as §2

DU-4475 [13] = tested on: DU-4475; remark: listed apart in the source
Description: (§3)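 DSRT, CellTiter-Blue viability, 72 h incubation. Signal is normalised to DMSO and benzethonium chloride controls. Value is the normalised response at dose 6.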

CAL-148 [14] = tested on: CAL-148; remark: listed apart in the source
Description: as §3

MDA-MB-453 [15] = tested on: MDA-MB-453; remark: listed apart in the source
Description: as §3

CAL-51 [16] = tested on: CAL-51; remark: listed apart in the source
Description: as §3

HDQ-P1 [17] = tested on: HDQ-P1; remark: listed apart in the source
Description: as §3

CAL-85-1 [18] = tested on: CAL-85-1; remark: listed apart in the source
Description: as §3

Row | SMILES | normalised viability (DU-4475 [13]) [%] | normalised viability (CAL-148 [14]) [%] | normalised viability (MDA-MB-453 [15]) [%] | normalised viability (CAL-51 [16]) [%] | normalised viability (HDQ-P1 [17]) [%] | normalised viability (CAL-85-1 [18]) [%] | further results
1 | NCC(=O)CCC(=O)O [Aminolevulinic acid] (1000 nM) |  |  |  |  |  |  | normalised viability (DU-4475 [1]): 95.6%; normalised viability (CAL-148 [2]): 95%; normalised viability (MDA-MB-453 [3]): 90.5%; normalised viability (CAL-51 [4]): 106%; normalised viability (HDQ-P1 [5]): 95.2%; normalised viability (CAL-85-1 [6]): 97.4%
2 | CC(C)Cn1cnc2c(N)nc3ccccc3c21 [Imiquimod] (1000 nM) |  |  |  |  |  |  | normalised viability (DU-4475 [1]): 93.3%; normalised viability (CAL-148 [2]): 106%; normalised viability (MDA-MB-453 [3]): 104%; normalised viability (CAL-51 [4]): 99.8%; normalised viability (HDQ-P1 [5]): 86.1%; normalised viability (CAL-85-1 [6]): 92.8%
3 | CO[C@H]1/C=C\C=C(/C)C(=O)NC2=CC(=O)C(NCCN(C)C)=C(C[C@@H](C)C[C@H](OC)[C@H](O)[C@@H](C)/C=C(\C)[C@@H]1OC(N)=O)C2=O [Alvespimycin] (300 nM) |  |  |  |  |  |  | normalised viability (DU-4475 [7]): 1.07%; normalised viability (CAL-148 [8]): 14.8%; normalised viability (MDA-MB-453 [9]): 8.24%; normalised viability (CAL-51 [10]): 18.2%; normalised viability (HDQ-P1 [11]): 33.1%; normalised viability (CAL-85-1 [12]): 24.4%
4 | CC(=O)Nc1ccc(C(=O)Nc2ccccc2N)cc1 [CI-994] (100 nM) |  |  |  |  |  |  | normalised viability (DU-4475 [1]): 98.7%; normalised viability (CAL-148 [2]): 91.2%; normalised viability (MDA-MB-453 [3]): 92%; normalised viability (CAL-51 [4]): 98.1%; normalised viability (HDQ-P1 [5]): 119%; normalised viability (CAL-85-1 [6]): 89.5%
5 | CCN(CCCOc1ccc2c(Nc3cc(CC(=O)Nc4cccc(F)c4)[nH]n3)ncnc2c1)CCOP(=O)(O)O [Barasertib] (100 nM) |  |  |  |  |  |  | normalised viability (DU-4475 [1]): 77%; normalised viability (CAL-148 [2]): 23.7%; normalised viability (MDA-MB-453 [3]): 55.3%; normalised viability (CAL-51 [4]): 60.6%; normalised viability (HDQ-P1 [5]): 76.5%; normalised viability (CAL-85-1 [6]): 77.2%
6 | C[C@]12CC[C@@H]3c4ccc(O)cc4C[C@@H](CCCCCCCCC[S+]([O-])CCCC(F)(F)C(F)(F)F)[C@H]3[C@@H]1CC[C@@H]2O (stereo not given in full) [Fulvestrant] (300 nM) | 92.7 | 102 | 98.8 | 111 | 74.7 | 87.8 | 
7 | N[C@@H](CSC(c1ccccc1)(c1ccccc1)c1ccccc1)C(=O)O [S-trityl-L-cysteine] (1200 nM) | 97.8 | 114 | 90.5 | 78.5 | 68.4 | 95.1 | 
8 | Cc1ccc(C(=O)Nc2ccc(CN3CCN(C)CC3)c(C(F)(F)F)c2)cc1C#Cc1cnc2cccnn12 [Ponatinib] (300 nM) |  |  |  |  |  |  | normalised viability (DU-4475 [7]): 73.8%; normalised viability (CAL-148 [8]): 87.7%; normalised viability (MDA-MB-453 [9]): 54.3%; normalised viability (CAL-51 [10]): 73.9%; normalised viability (HDQ-P1 [11]): 58.9%; normalised viability (CAL-85-1 [12]): 80.5%
9 | C=C(c1ccc(C(=O)O)cc1)c1cc2c(cc1C)C(C)(C)CCC2(C)C [Bexarotene] (300 nM) | 116 | 92.8 | 71.4 | 92.8 | 54.5 | 89.8 | 
10 | C[C@@H](Oc1cc(-c2cnn(C3CCNCC3)c2)cnc1N)c1c(Cl)ccc(F)c1Cl [Crizotinib] (3000 nM) |  |  |  |  |  |  | normalised viability (DU-4475 [7]): 78.7%; normalised viability (CAL-148 [8]): 76.8%; normalised viability (MDA-MB-453 [9]): 57.3%; normalised viability (CAL-51 [10]): 62.9%; normalised viability (HDQ-P1 [11]): 86.7%; normalised viability (CAL-85-1 [12]): 66.1%
11 | Cn1c(CCCC(=O)O)nc2cc(N(CCCl)CCCl)ccc21 [Bendamustine] (300 nM) | 108 | 114 | 96.8 | 107 | 61 | 94.6 | 
12 | COc1cc([C@@H]2c3cc4c(cc3[C@@H](O[C@@H]3O[C@@H]5CO[C@@H](C)O[C@H]5[C@H](O)[C@H]3O)[C@H]3COC(=O)[C@H]23)OCO4)cc(OC)c1O [Etoposide] (3000 nM) |  |  |  |  |  |  | normalised viability (DU-4475 [7]): 3.63%; normalised viability (CAL-148 [8]): 41.3%; normalised viability (MDA-MB-453 [9]): 89%; normalised viability (CAL-51 [10]): 26.4%; normalised viability (HDQ-P1 [11]): 78.7%; normalised viability (CAL-85-1 [12]): 76.9%
13 | CNCc1ccc(-c2[nH]c3cc(F)cc4c3c2CCNC4=O)cc1 [Rucaparib] (300 nM) | 77.4 | 91.7 | 108 | 110 | 43.2 | 92.6 | 
14 | CN(C)/N=N/c1[nH]cnc1C(N)=O [Dacarbazine] (300 nM) | 92.7 | 84.3 | 89 | 89.4 | 88.8 | 93.4 | 
15 | NC(=O)Nc1cc(-c2cccc(F)c2)sc1C(=O)N[C@H]1CCCNC1 [AZD 7762] (100 nM) |  |  |  |  |  |  | normalised viability (DU-4475 [1]): 97.4%; normalised viability (CAL-148 [2]): 102%; normalised viability (MDA-MB-453 [3]): 88.5%; normalised viability (CAL-51 [4]): 101%; normalised viability (HDQ-P1 [5]): 96.5%; normalised viability (CAL-85-1 [6]): 89.1%
16 | Cc1ccc(-n2nc(C(C)(C)C)cc2NC(=O)Nc2ccc(OCCN3CCOCC3)c3ccccc23)cc1 [Doramapimod] (3000 nM) |  |  |  |  |  |  | normalised viability (DU-4475 [7]): 114%; normalised viability (CAL-148 [8]): 93.1%; normalised viability (MDA-MB-453 [9]): 96.8%; normalised viability (CAL-51 [10]): 102%; normalised viability (HDQ-P1 [11]): 75.8%; normalised viability (CAL-85-1 [12]): 76%
17 | C#Cc1cccc(Nc2ncnc3cc(OCCOC)c(OCCOC)cc23)c1 [Erlotinib] (300 nM) | 114 | 86.1 | 86.1 | 96.4 | 63.8 | 73.3 | 
18 | CCC1=C[C@@H]2CN(C1)Cc1c([nH]c3ccccc13)[C@@](C(=O)OC)(c1cc3c(cc1OC)N(C)[C@H]1[C@@](O)(C(=O)OC)[C@H](OC(C)=O)[C@]4(CC)C=CCN5CC[C@]31[C@@H]54)C2 [Vinorelbine] (300 nM) | 53.9 | 24.5 | 25.2 | 35 | 40.5 | 31.4 | 
19 | Cc1ccc(-n2nc(C(C)(C)C)cc2NC(=O)Nc2ccc(OCCN3CCOCC3)c3ccccc23)cc1 [Doramapimod] (300 nM) | 96.3 | 91.3 | 105 | 107 | 38 | 81.1 | 
20 | CC1(C)NC(=O)N(c2ccc([N+](=O)[O-])c(C(F)(F)F)c2)C1=O [Nilutamide] (300 nM) | 106 | 98 | 113 | 102 | 125 | 104 | 
